Laboratory results as given in patent publication US8222246B2, “Substituted isoxazoles” (Hoffmann-La Roche Inc., priority 2009, dated 2012).

target: T1, GABA A α5 (α5β3γ2) (Homo sapiens, UniProt P18507+P31644); test: [3H]flumazenil competition binding assay, human GABA A α5 receptors in HEK293 cells; details: competition for [3H]flumazenil (0.5 nM); HEK293 cells expressing human (transiently transfected) receptors; means of two determinations; read-out: hKi GABA A α5
T1 construct: expressed in transfected cells; host or cells: HEK293 (transiently transfected), membranes
Description: Membrane Preparation and Binding Assay
The affinity of compounds at GABA A receptor subtypes was measured by competition for [3H]flumazenil (85 Ci/mmol; Roche) binding to HEK293 cells expressing rat (stably transfected) or human (transiently transfected) receptors of composition α1β3γ2, α2β3γ2, α3β3γ2 and α5β3γ2.
Cell pellets were suspended in Krebs-tris buffer (4.8 mM KCl, 1.2 mM CaCl2, 1.2 mM MgCl2, 120 mM NaCl, 15 mM Tris; pH 7.5; binding assay buffer), homogenized by polytron for ca. 20 sec on ice and centrifuged for 60 min at 4° C. (50000 g; Sorvall, rotor: SM24=20000 rpm). The cell pellets were resuspended in Krebs-tris buffer and homogenized by polytron for ca. 15 sec on ice. Protein was measured (Bradford method, Bio-Rad) and aliquots of 1 mL were prepared and stored at −80° C.
Radioligand binding assays were carried out in a volume of […] (96-well plates) which contained […] of cell membranes, [3H]flumazenil at a concentration of 1 nM for α1, α2, α3 subunits and 0.5 nM for α5 subunits and the test compound in the range of […]. Nonspecific binding was defined by 10^−5 M diazepam and typically represented less than 5% of the total binding. Assays were incubated to equilibrium for 1 hour at 4° C. and harvested onto GF/C uni-filters (Packard) by filtration using a Packard harvester and washing with ice-cold wash buffer (50 mM Tris; pH 7.5). After drying, filter-retained radioactivity was detected by liquid scintillation counting. Ki values were calculated using Excel-Fit (Microsoft) and are the means of two determinations.
Representative test results, obtained by the above described assay measuring binding affinity to HEK293 cells expressing human (h) receptors, are shown in table 1 below.

`CC1(NC(=O)c2ccc(OCc3c(-c4ccc(F)cc4)noc3CO)nc2)COC1` [Example 17, 6-[3-(4-Fluoro-phenyl)-5-hydroxymethyl-isoxazol-4-ylmethoxy]-N-(3-methyl-oxetan-3-yl)-nicotinamide] and `O=C(NC1CC1)c1ccc(OCc2c(-c3ccc(F)cc3)noc2CO)nc1` [Example 8, N-Cyclopropyl-6-[3-(4-fluoro-phenyl)-5-hydroxymethyl-isoxazol-4-ylmethoxy]-nicotinamide] are within 1.5-fold of each other in Ki: 1.8 nM for the first, 1.7 nM for the second.

First: O=C(N[C@@H]1CCC[C@H]1O)c1ccc(OCc2c(-c3ccc(Cl)cc3)noc2CO)nc1 (single isomer, unassigned) [Example 26, 6-[3-(4-Chloro-phenyl)-5-hydroxymethyl-isoxazol-4-ylmethoxy]-N-((1S,2S)-2-hydroxy-cyclopentyl)-nicotinamide or 6-[3-(4-Chloro-phenyl)-5-hydroxymethyl-isoxazol-4-ylmethoxy]-N-((1R,2R)-2-hydroxy-cyclopentyl)-nicotinamide]
Second: O=C(N[C@H]1CCC[C@@H]1O)c1ccc(OCc2c(-c3ccc(Cl)cc3)noc2CO)nc1 (single isomer, unassigned) [Example 27, 6-[3-(4-Chloro-phenyl)-5-hydroxymethyl-isoxazol-4-ylmethoxy]-N-([1R,2R]-2-hydroxy-cyclopentyl)-nicotinamide or 6-[3-(4-Chloro-phenyl)-5-hydroxymethyl-isoxazol-4-ylmethoxy]-N-([1S,2S]-2-hydroxy-cyclopentyl)-nicotinamide]
The Ki of the first is 2-fold higher: 1.2 nM for the first, 0.6 nM for the second.

Compared with `O=C(NC1CCOCC1)c1ccc(OCc2c(-c3ccc(F)cc3)noc2CO)nc1` [Example 5, 6-[3-(4-Fluoro-phenyl)-5-hydroxymethyl-isoxazol-4-ylmethoxy]-N-(tetrahydro-pyran-4-yl)-nicotinamide], `O=C(NC1CCOCC1)c1ccc(OCc2c(-c3ccc(F)c(F)c3)noc2CO)nc1` [Example 29, 6-[3-(3,4-Difluoro-phenyl)-5-hydroxymethyl-isoxazol-4-ylmethoxy]-N-(tetrahydro-pyran-4-yl)-nicotinamide] is 1.5-fold higher in Ki: 1.3 nM for the first, 2 nM for the second. The first binds more tightly here.

`C[C@H](NC(=O)c1ccc(OCc2c(-c3ccc(Cl)cc3)noc2CO)nc1)C(F)(F)F` [Example 25, 6-[3-(4-Chloro-phenyl)-5-hydroxymethyl-isoxazol-4-ylmethoxy]-N-([S]-2,2,2-trifluoro-1-methyl-ethyl)-nicotinamide] and `CC(NC(=O)c1ccc(OCc2c(-c3ccc(F)cc3)noc2CO)nc1)C(F)(F)F` (stereo not shown) [Example 11, 6-[3-(4-Fluoro-phenyl)-5-hydroxymethyl-isoxazol-4-ylmethoxy]-N-(2,2,2-trifluoro-1-methyl-ethyl)-nicotinamide] are within 1.5-fold of each other in Ki: 1.7 nM for the first, 1.4 nM for the second.

Going from `CC(C)NC(=O)c1ccc(OCc2c(-c3ccc(Cl)cc3)noc2CO)nc1` [Example 19, 6-[3-(4-Chloro-phenyl)-5-hydroxymethyl-isoxazol-4-ylmethoxy]-N-isopropyl-nicotinamide] to `CC(C)NC(=O)c1ccc(OCc2c(-c3ccc(F)c(F)c3)noc2CO)nc1` [Example 28, 6-[3-(3,4-Difluoro-phenyl)-5-hydroxymethyl-isoxazol-4-ylmethoxy]-N-isopropyl-nicotinamide], the Ki rises from 0.4 nM to 1.5 nM (3.8-fold). The first binds more tightly here.

First: CCCCc1noc(CO)c1COc1ccc(C(=O)NC2(C)COC2)cn1 [Example 50, 6-(3-Butyl-5-hydroxymethyl-isoxazol-4-ylmethoxy)-N-(3-methyloxetan-3-yl)-nicotinamide]
Second: CCCCc1noc(CO)c1COc1ccc(C(=O)NC2CCC2)cn1 [Example 52, 6-(3-Butyl-5-hydroxymethyl-isoxazol-4-ylmethoxy)-N-cyclobutyl-nicotinamide]
The Ki of the first is 1.6-fold lower: 8.7 nM for the first, 13.7 nM for the second.

Compared with `CC(C)(CO)NC(=O)c1ccc(OCc2c(-c3ccc(F)cc3)noc2CO)nc1` [Example 12, 6-[3-(4-Fluoro-phenyl)-5-hydroxymethyl-isoxazol-4-ylmethoxy]-N-(2-hydroxy-1,1-dimethyl-ethyl)-nicotinamide], `CC(C)(CO)NC(=O)c1ccc(OCc2c(-c3ccc(Cl)cc3)noc2CO)nc1` [Example 23, 6-[3-(4-Chloro-phenyl)-5-hydroxymethyl-isoxazol-4-ylmethoxy]-N-(2-hydroxy-1,1-dimethyl-ethyl)-nicotinamide] is 2.6-fold lower in Ki: 10.1 nM for the first, 3.9 nM for the second.

Going from `CC[C@@H](CO)NC(=O)c1ccc(OCc2c(-c3ccc(F)cc3)noc2CO)nc1` [Example 15, 6-[3-(4-Fluoro-phenyl)-5-hydroxymethyl-isoxazol-4-ylmethoxy]-N-((S)-1-hydroxymethyl-propyl)-nicotinamide] to `CC[C@@H](CO)NC(=O)c1ccc(OCc2c(-c3ccc(F)c(F)c3)noc2CO)nc1` [Example 38, 6-[3-(3,4-Difluoro-phenyl)-5-hydroxymethyl-isoxazol-4-ylmethoxy]-N-([S]-1-hydroxymethyl-propyl)-nicotinamide], the Ki rises from 0.6 nM to 1.3 nM (2.2-fold). The first binds more tightly here.

First: O=C(NCC(F)(F)F)c1ccc(OCc2c(-c3ccc(Cl)cc3)noc2CO)nc1 [Example 21, 6-[3-(4-Chloro-phenyl)-5-hydroxymethyl-isoxazol-4-ylmethoxy]-N-(2,2,2-trifluoro-ethyl)-nicotinamide]
Second: O=C(NCC(F)(F)F)c1ccc(OCc2c(-c3ccc(F)cc3)noc2CO)nc1 [Example 7, 6-[3-(4-Fluoro-phenyl)-5-hydroxymethyl-isoxazol-4-ylmethoxy]-N-(2,2,2-trifluoro-ethyl)-nicotinamide]
The Ki of the first is 1.5-fold higher: 2 nM for the first, 1.3 nM for the second. The second binds more tightly here.

Compared with `COCCNC(=O)c1ccc(OCc2c(-c3ccc(F)cc3)noc2CO)nc1` [Example 9, 6-[3-(4-Fluoro-phenyl)-5-hydroxymethyl-isoxazol-4-ylmethoxy]-N-(2-methoxy-ethyl)-nicotinamide], `COCCNC(=O)c1ccc(OCc2c(-c3ccc(F)c(F)c3)noc2CO)nc1` [Example 36, 6-[3-(3,4-Difluoro-phenyl)-5-hydroxymethyl-isoxazol-4-ylmethoxy]-N-(2-methoxy-ethyl)-nicotinamide] is 1.9-fold higher in Ki: 4.1 nM for the first, 7.7 nM for the second. The first binds more tightly here.

Compared with `O=C(NC1CCOCC1)c1ccc(OCc2c(-c3ccccn3)noc2CO)nc1` [Example 47, 6-(5-Hydroxymethyl-3-pyridin-2-yl-isoxazol-4-ylmethoxy)-N-(tetrahydropyran-4-yl)-nicotinamide], `CN(C)NC(=O)c1ccc(OCc2c(-c3ccccn3)noc2CO)nc1` [Example 46, 6-(5-Hydroxymethyl-3-pyridin-2-yl-isoxazol-4-ylmethoxy)-nicotinic acid N′,N′-dimethyl-hydrazide] is 2.3-fold higher in Ki: 1.1 nM for the first, 2.5 nM for the second.

Compared with `O=C(NC1CC1)c1ccc(OCc2c(-c3ccc(F)c(F)c3)noc2CO)nc1` [Example 33, N-Cyclopropyl-6-[3-(3,4-difluoro-phenyl)-5-hydroxymethyl-isoxazol-4-ylmethoxy]-nicotinamide], `O=C(NC1CC1)c1ccc(OCc2c(-c3ccc(Cl)cc3)noc2CO)nc1` [Example 20, 6-[3-(4-Chloro-phenyl)-5-hydroxymethyl-isoxazol-4-ylmethoxy]-N-cyclopropyl-nicotinamide] is 3.1-fold lower in Ki: 3.1 nM for the first, 1 nM for the second.

Compared with `O=C(NN1CCOCC1)c1ccc(OCc2c(-c3ccc(F)c(F)c3)noc2CO)nc1` [Example 41, 6-[3-(3,4-Difluoro-phenyl)-5-hydroxymethyl-isoxazol-4-ylmethoxy]-N-morpholin-4-yl-nicotinamide], `CC(C)(C)NC(=O)c1ccc(OCc2c(-c3ccc(F)c(F)c3)noc2CO)nc1` [Example 40, N-tert-Butyl-6-[3-(3,4-difluoro-phenyl)-5-hydroxymethyl-isoxazol-4-ylmethoxy]-nicotinamide] is 11-fold higher in Ki: 1.1 nM for the first, 11.8 nM for the second.

Compared with `O=C(NCC(F)(F)F)c1ccc(OCc2c(-c3ccc(F)c(F)c3)noc2CO)nc1` [Example 31, 6-[3-(3,4-Difluoro-phenyl)-5-hydroxymethyl-isoxazol-4-ylmethoxy]-N-(2,2,2-trifluoro-ethyl)-nicotinamide], `O=C(NCC(F)(F)C(F)(F)F)c1ccc(OCc2c(-c3ccc(F)c(F)c3)noc2CO)nc1` [Example 35, 6-[3-(3,4-Difluoro-phenyl)-5-hydroxymethyl-isoxazol-4-ylmethoxy]-N-(2,2,3,3,3-pentafluoro-propyl)-nicotinamide] is 2.5-fold higher in Ki: 2.7 nM for the first, 6.8 nM for the second. The first binds more tightly here.

Compared with `CCCCc1noc(CO)c1COc1ccc(C(=O)N2CCS(=O)(=O)CC2)cn1` [Example 55, [6-(3-Butyl-5-hydroxymethyl-isoxazol-4-ylmethoxy)-pyridin-3-yl]-(1,1-dioxo-thiomorpholin-4-yl)-methanone], `CCCCc1noc(CO)c1COc1ccc(C(=O)NCC(F)(F)F)cn1` [Example 51, 6-(3-Butyl-5-hydroxymethyl-isoxazol-4-ylmethoxy)-N-(2,2,2-trifluoroethyl)-nicotinamide] is 5-fold lower in Ki: 50.5 nM for the first, 10.2 nM for the second. The second binds more tightly here.

Molecule `O=C(NCC(F)(F)C(F)(F)F)c1ccc(OCc2c(-c3ccc(F)cc3)noc2CO)nc1` [Example 13, 6-[3-(4-Fluoro-phenyl)-5-hydroxymethyl-isoxazol-4-ylmethoxy]-N-(2,2,3,3,3-pentafluoro-propyl)-nicotinamide] has a Ki of 3.4 nM.
